# Source: patent US9695155B2, “Herbicidal substituted pyrimidinyloxy benzene compounds” (E. I. DU PONT DE NEMOURS AND COMPANY, priority 2013, dated 2017)
# Assays:
# [1] = test system: wild poinsettia; assay: Test E postemergence; type: in vivo, Euphorbia heterophylla; settings: Euphorbia heterophylla, post-emergence, read-out: Plant response rating, Poinsettia, Wild
# Outline: (§1)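 Test chemicals formulated in a non-phytotoxic solvent mixture containing a surfactant were applied preemergence to seeds in silt loam soil or postemergence to plants at the 1- to 4-leaf stage in potting mix. After 14 to 21 days in a greenhouse, injury was visually rated against controls on a 0-100 scale (0 = no effect, 100 = complete control).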
# [2] = test system: wild mustard; assay: Test D postemergence; type: in vivo, Sinapis arvensis; settings: Brassica, post-emergence
# Outline: (§2)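 Solvent/surfactant formulations are sprayed pre (silt loam) or post (1–4 leaf plants, 2–18 cm). Plants stay 7–21 days in controlled conditions before a visual 0–100 score is given.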
# [3] = test system: oilseed rape; assay: Test D postemergence; type: in vivo, Brassica napus; settings: Brassica napus, post-emergence
# Outline: as §2
# [4] = test system: sandbur; assay: Test E postemergence; type: in vivo, Cenchrus echinatus; settings: Cenchrus echinatus, post-emergence, read-out: Plant response rating, Sandbur
# Outline: as §1
# [5] = test system: field poppy; assay: Test D preemergence; type: in vivo, Papaver rhoeas; settings: Papaver rhoeas, pre-emergence
# Outline: as §2
# [6] = test system: field violet; assay: Test D preemergence; type: in vivo, Viola arvensis; settings: Viola arvensis, pre-emergence
# Outline: as §2
# [7] = test system: kochia; assay: Test D preemergence; type: in vivo, Kochia scoparia; settings: Bassia scoparia, pre-emergence
# Outline: as §2
# [8] = test system: kochia; assay: Test D postemergence; type: in vivo, Kochia scoparia; settings: Bassia scoparia, post-emergence
# Outline: as §2
# [9] = test system: corn; assay: Test E postemergence; type: in vivo, Zea mays; settings: Zea mays, post-emergence
# Outline: as §1
# [10] = test system: chickweed; assay: Test D postemergence; type: in vivo, Stellaria media; settings: Stellaria media, post-emergence
# Outline: as §2
# [11] = test system: Italian ryegrass; assay: Test D postemergence; type: in vivo, Lolium multiflorum; settings: Lolium multiflorum, post-emergence
# Outline: as §2
# [12] = test system: windgrass; assay: Test D preemergence; type: in vivo, Apera spica-venti; settings: Apera spica-venti, pre-emergence
# Outline: as §2
# [13] = test system: fall panicum; assay: Test E postemergence; type: in vivo, Panicum dichotomiflorum; settings: Panicum dichotomiflorum, post-emergence, read-out: Plant response rating, Panicum, Fall
# Outline: as §1
# [14] = test system: deadnettle; assay: Test D preemergence; type: in vivo, Lamium amplexicaule; settings: Lamium amplexicaule, pre-emergence
# Outline: as §2
# [15] = Postemergence, 31 g ai/ha, scale 0 to 100
# [16] = Postemergence, 62 g ai/ha, scale 0 to 100
# [17] = Postemergence, 125 g ai/ha, scale 0 to 100
# [18] = postemergence, 8 g ai/ha, scale 0 to 100, 0 no effect, 100 complete control
# [19] = postemergence, 16 g ai/ha, scale 0 to 100, 0 no effect, 100 complete control
smiles,measurement,setting,value
"Clc1cnc(Oc2ccccc2-n2cc(Br)cn2)nc1 [Compound 7, 2-[2-(4-bromo-1H-pyrazol-1-yl)phenoxy]-5-chloropyrimidine]",pest or weed control at 31 g/ha,[1]; [15],30%
same,pest or weed control at 62 g/ha,[1]; [16],60%
same,pest or weed control at 125 g/ha,[1]; [17],60%
same,pest or weed control at 8 g/ha,[1]; [18],0%
same,pest or weed control at 16 g/ha,[1]; [19],30%
same,pest or weed control at 16 g/ha,"[2]; 16 g ai/ha, scale 0-100, read-out: Plant response rating, Mustard, Wild",20%
same,pest or weed control at 31 g/ha,"[2]; 31 g ai/ha, scale 0 to 100 (0 no effect, 100 complete control), read-out: Plant response rating, Mustard, Wild",50%
same,pest or weed control at 62 g/ha,"[2]; 62 g ai/ha, scale 0 to 100 (0 no effect, 100 complete control), read-out: Plant response rating, Mustard, Wild",75%
same,pest or weed control at 125 g/ha,"[2]; 125 g ai/ha, scale 0 to 100 (0 no effect, 100 complete control), read-out: Plant response rating, Mustard, Wild",95%
same,pest or weed control at 250 g/ha,"[2]; 250 g ai/ha, scale 0 to 100 (0 no effect, 100 complete control), read-out: Plant response rating, Mustard, Wild",98%
same,plant injury at 16 g/ha,"[3]; 16 g ai/ha, scale 0-100, read-out: Plant response rating, Oilseed Rape",75%
same,plant injury at 31 g/ha,"[3]; 31 g ai/ha, scale 0 to 100 (0 no effect, 100 complete control), read-out: Plant response rating, Oilseed Rape",80%
same,plant injury at 62 g/ha,"[3]; 62 g ai/ha, scale 0 to 100 (0 no effect, 100 complete control), read-out: Plant response rating, Oilseed Rape",95%
same,plant injury at 125 g/ha,"[3]; 125 g ai/ha, scale 0 to 100 (0 no effect, 100 complete control), read-out: Plant response rating, Oilseed Rape",100%
same,plant injury at 250 g/ha,"[3]; 250 g ai/ha, scale 0 to 100 (0 no effect, 100 complete control), read-out: Plant response rating, Oilseed Rape",100%
same,pest or weed control at 31 g/ha,[4]; [15],0%
same,pest or weed control at 62 g/ha,[4]; [16],0%
same,pest or weed control at 125 g/ha,[4]; [17],0%
same,pest or weed control at 8 g/ha,[4]; [18],0%
same,pest or weed control at 16 g/ha,[4]; [19],0%
same,pest or weed control at 16 g/ha,"[5]; 16 g ai/ha, scale 0 (no effect) to 100 (complete control), read-out: Plant response rating, Field Poppy",0%
same,pest or weed control at 31 g/ha,"[5]; 31 g ai/ha, scale 0-100, read-out: Plant response rating, Field Poppy",0%
same,pest or weed control at 62 g/ha,"[5]; 62 g ai/ha, scale 0-100, read-out: Plant response rating, Field Poppy",30%
same,pest or weed control at 125 g/ha,"[5]; 125 g ai/ha, scale 0-100, read-out: Plant response rating, Field Poppy",60%
same,pest or weed control at 250 g/ha,"[5]; 250 g ai/ha, scale 0-100, read-out: Plant response rating, Field Poppy",100%
same,pest or weed control at 16 g/ha,"[6]; 16 g ai/ha, scale 0 (no effect) to 100 (complete control), read-out: Plant response rating, Field Violet",0%
same,pest or weed control at 31 g/ha,"[6]; 31 g ai/ha, scale 0-100, read-out: Plant response rating, Field Violet",0%
same,pest or weed control at 62 g/ha,"[6]; 62 g ai/ha, scale 0-100, read-out: Plant response rating, Field Violet",20%
same,pest or weed control at 125 g/ha,"[6]; 125 g ai/ha, scale 0-100, read-out: Plant response rating, Field Violet",70%
same,pest or weed control at 250 g/ha,"[6]; 250 g ai/ha, scale 0-100, read-out: Plant response rating, Field Violet",80%
same,pest or weed control at 16 g/ha,"[7]; 16 g ai/ha, scale 0 (no effect) to 100 (complete control), read-out: Plant response rating, Kochia",0%
same,pest or weed control at 31 g/ha,"[7]; 31 g ai/ha, scale 0-100, read-out: Plant response rating, Kochia",0%
same,pest or weed control at 62 g/ha,"[7]; 62 g ai/ha, scale 0-100, read-out: Plant response rating, Kochia",0%
same,pest or weed control at 125 g/ha,"[7]; 125 g ai/ha, scale 0-100, read-out: Plant response rating, Kochia",0%
same,pest or weed control at 250 g/ha,"[7]; 250 g ai/ha, scale 0-100, read-out: Plant response rating, Kochia",70%
same,pest or weed control at 16 g/ha,"[8]; 16 g ai/ha, scale 0-100, read-out: Plant response rating, Kochia",30%
same,pest or weed control at 31 g/ha,"[8]; 31 g ai/ha, scale 0 to 100 (0 no effect, 100 complete control), read-out: Plant response rating, Kochia",70%
same,pest or weed control at 62 g/ha,"[8]; 62 g ai/ha, scale 0 to 100 (0 no effect, 100 complete control), read-out: Plant response rating, Kochia",100%
same,pest or weed control at 125 g/ha,"[8]; 125 g ai/ha, scale 0 to 100 (0 no effect, 100 complete control), read-out: Plant response rating, Kochia",100%
same,pest or weed control at 250 g/ha,"[8]; 250 g ai/ha, scale 0 to 100 (0 no effect, 100 complete control), read-out: Plant response rating, Kochia",100%
same,"corn plant response (injury) rating, 0-100 at 31 g/ha",[9]; [15],0%
same,"corn plant response (injury) rating, 0-100 at 62 g/ha",[9]; [16],10%
same,"corn plant response (injury) rating, 0-100 at 125 g/ha",[9]; [17],5%
same,"corn plant response (injury) rating, 0-100 at 8 g/ha",[9]; [18],0%
same,"corn plant response (injury) rating, 0-100 at 16 g/ha",[9]; [19],0%
same,pest or weed control at 16 g/ha,"[10]; 16 g ai/ha, scale 0-100, read-out: Plant response rating, Chickweed",10%
same,pest or weed control at 31 g/ha,"[10]; 31 g ai/ha, scale 0 to 100 (0 no effect, 100 complete control), read-out: Plant response rating, Chickweed",10%
same,pest or weed control at 62 g/ha,"[10]; 62 g ai/ha, scale 0 to 100 (0 no effect, 100 complete control), read-out: Plant response rating, Chickweed",20%
same,pest or weed control at 125 g/ha,"[10]; 125 g ai/ha, scale 0 to 100 (0 no effect, 100 complete control), read-out: Plant response rating, Chickweed",60%
same,pest or weed control at 250 g/ha,"[10]; 250 g ai/ha, scale 0 to 100 (0 no effect, 100 complete control), read-out: Plant response rating, Chickweed",80%
same,pest or weed control at 16 g/ha,"[11]; 16 g ai/ha, scale 0-100, read-out: Plant response rating, Ryegrass, Italian",0%
same,pest or weed control at 31 g/ha,"[11]; 31 g ai/ha, scale 0 to 100 (0 no effect, 100 complete control), read-out: Plant response rating, Ryegrass, Italian",0%
same,pest or weed control at 62 g/ha,"[11]; 62 g ai/ha, scale 0 to 100 (0 no effect, 100 complete control), read-out: Plant response rating, Ryegrass, Italian",0%
same,pest or weed control at 125 g/ha,"[11]; 125 g ai/ha, scale 0 to 100 (0 no effect, 100 complete control), read-out: Plant response rating, Ryegrass, Italian",0%
same,pest or weed control at 250 g/ha,"[11]; 250 g ai/ha, scale 0 to 100 (0 no effect, 100 complete control), read-out: Plant response rating, Ryegrass, Italian",0%
same,pest or weed control at 16 g/ha,"[12]; 16 g ai/ha, scale 0 (no effect) to 100 (complete control), read-out: Plant response rating, Windgrass",0%
same,pest or weed control at 31 g/ha,"[12]; 31 g ai/ha, scale 0 (no effect) to 100 (complete control), read-out: Plant response rating, Windgrass",0%
same,pest or weed control at 62 g/ha,"[12]; 62 g ai/ha, scale 0-100, read-out: Plant response rating, Windgrass",0%
same,pest or weed control at 125 g/ha,"[12]; 125 g ai/ha, scale 0-100, read-out: Plant response rating, Windgrass",0%
same,pest or weed control at 250 g/ha,"[12]; 250 g ai/ha, scale 0-100, read-out: Plant response rating, Windgrass",30%
same,pest or weed control at 31 g/ha,[13]; [15],15%
same,pest or weed control at 62 g/ha,[13]; [16],50%
same,pest or weed control at 125 g/ha,[13]; [17],0%
same,pest or weed control at 8 g/ha,[13]; [18],0%
same,pest or weed control at 16 g/ha,[13]; [19],0%
same,pest or weed control at 16 g/ha,"[14]; 16 g ai/ha, scale 0 (no effect) to 100 (complete control), read-out: Plant response rating, Deadnettle",0%
same,pest or weed control at 31 g/ha,"[14]; 31 g ai/ha, scale 0-100, read-out: Plant response rating, Deadnettle",0%
same,pest or weed control at 62 g/ha,"[14]; 62 g ai/ha, scale 0-100, read-out: Plant response rating, Deadnettle",10%
same,pest or weed control at 125 g/ha,"[14]; 125 g ai/ha, scale 0-100, read-out: Plant response rating, Deadnettle",20%
same,pest or weed control at 250 g/ha,"[14]; 250 g ai/ha, scale 0-100, read-out: Plant response rating, Deadnettle",80%
